Test results: publication PMC7419507, “In vitro Cas9-assisted editing of modular polyketide synthase genes to produce desired natural product derivatives” (Nature Communications, 2020)
Values joined by “and” are separate entries in the source; they are usually repeats but may differ in a detail not shown here. Equal values may be shown once.

What was measured:
[1] = system: human ovarian adenocarcinoma SKOV-3 cells; assay: Cytotoxicity assay (CellTiter-Glo, 72 h), SKOV-3; format: cell-based; details: raw replicate data
Method in brief: (§1)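 Incubate 4 h at 37 °C, 5% CO2. Add 2-fold compound dilutions, 0.5% DMSO. After 72 h, read CellTiter-Glo luminescence.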

[2] = Cytotoxicity assay (CellTiter-Glo, 72 h), SKOV-3; format: cell-based, human; details: human, raw replicate data, read-out: SKOV3 viability (%)
Method in brief: as §1

[3] = Cytotoxicity assay (CellTiter-Glo, 72 h), Jurkat; format: cell-based; details: human, Jurkat cells (T lymphoma), raw data (replicates)
Method in brief: as §1

In the case of CO[C@@H]1C[C@H](C[C@@H](C)[C@@H]2CC(=O)[C@H](C)/C=C(\C)[C@@H](O)[C@@H](OC)C(=O)[C@H](C)C[C@H](C)/C=C/C=C/C=C(\C)[C@H](O)C[C@@H]3CC[C@@H](C)[C@@](O)(O3)C(=O)C(=O)N3CCCC[C@H]3C(=O)O2)CC[C@H]1O [Compound 17, (16R)-16-O-demethyl rapamycin], the “SKOV3 viability (%)” value ([1]; conc 9.53674e-5 uM) is reported as 109.3% and 114.5%, the “SKOV3 viability (%)” value ([1]; conc 0.000190735 uM) is reported as 90.8% and 99.6% and the “SKOV3 viability (%)” value ([1]; conc 0.00038147 uM) is reported as 115.4% and 113.9%. For the same molecule, the “SKOV3 viability (%)” value ([1]; conc 0.000762939 uM) was 109.0% and 102.3%, the “SKOV3 viability (%)” value ([1]; conc 0.00152588 uM) was 112.3% and 106.1% and the “SKOV3 viability (%)” value ([1]; conc 0.00305176 uM) was 107.9%. For the same molecule, the “SKOV3 viability (%)” value ([1]; conc 0.00610352 uM) was 101.8% and 106.6%, the “SKOV3 viability (%)” value ([1]; conc 0.012207 uM) was 96.6% and 104.0% and the “SKOV3 viability (%)” value ([1]; conc 0.0244141 uM) was 95.8%. The “SKOV3 viability (%)” value ([1]; conc 0.0488281 uM) was 79.4% and 88.5%, the “SKOV3 viability (%)” value ([1]; conc 0.0976562 uM) was 86.2% and 76.7% and the “SKOV3 viability (%)” value ([1]; conc 0.195312 uM) was 69.8% and 72.4%. For the same molecule, the “SKOV3 viability (%)” value ([1]; conc 0.390625 uM) was 81.8% and 79.5%, the “SKOV3 viability (%)” value ([1]; conc 0.78125 uM) was 70.7% and the “SKOV3 viability (%)” value ([1]; conc 1.5625 uM) was 65.2% and 67.1%. The “SKOV3 viability (%)” value ([1]; conc 3.125 uM) was 69.1%, the “SKOV3 viability (%)” value ([1]; conc 6.25 uM) was 64.7% and 66.1% and the “SKOV3 viability (%)” value ([1]; conc 12.5 uM) was 62.1% and 61.3%. The “SKOV3 viability (%)” value ([1]; conc 25 uM) was 65.7% and 67.6%, the “SKOV3 viability (%)” value ([1]; conc 50 uM) was 57.2% and 61.6% and the viability at 72 h, 9.53674e-05 uM ([2]; SKOV-3 cells (ovarian adenocarcinoma), conc 9.53674e-5 uM) was 108%. The viability at 72 h, 0.000190735 uM ([2]; SKOV-3 cells (ovarian adenocarcinoma), conc 0.000190735 uM) was 88.6%, the viability at 72 h, 0.00038147 uM ([2]; SKOV-3 cells (ovarian adenocarcinoma), conc 0.00038147 uM) was 109% and the viability at 72 h, 0.000762939 uM ([2]; SKOV-3 cells (ovarian adenocarcinoma), conc 0.000762939 uM) was 108%. The viability at 72 h, 0.00152588 uM ([2]; SKOV-3 cells (ovarian adenocarcinoma), conc 0.00152588 uM) was 108%, the viability at 72 h, 0.00305176 uM ([2]; SKOV-3 cells (ovarian adenocarcinoma), conc 0.00305176 uM) was 107% and the viability at 72 h, 0.00610352 uM ([2]; SKOV-3 cells (ovarian adenocarcinoma), conc 0.00610352 uM) was 103%. It also gave a viability at 72 h, 0.012207 uM ([2]; SKOV-3 cells (ovarian adenocarcinoma), conc 0.012207 uM) of 97.7%, a viability at 72 h, 0.0244141 uM ([2]; SKOV-3 cells (ovarian adenocarcinoma), conc 0.0244141 uM) of 95.9% and a viability at 72 h, 0.0488281 uM ([2]; SKOV-3 cells (ovarian adenocarcinoma), conc 0.0488281 uM) of 84.3%. For the same molecule, the viability at 72 h, 0.0976562 uM ([2]; SKOV-3 cells (ovarian adenocarcinoma), conc 0.0976562 uM) was 77.9%, the viability at 72 h, 0.195312 uM ([2]; SKOV-3 cells (ovarian adenocarcinoma), conc 0.195312 uM) was 70% and the viability at 72 h, 0.390625 uM ([2]; SKOV-3 cells (ovarian adenocarcinoma), conc 0.390625 uM) was 78.2%. The viability at 72 h, 12.5 uM ([2]; SKOV-3 cells (ovarian adenocarcinoma), conc 12.5 uM) was 65%, the viability at 72 h, 25 uM ([2]; SKOV-3 cells (ovarian adenocarcinoma), conc 25 uM) was 64.3% and the viability at 72 h, 50 uM ([2]; SKOV-3 cells (ovarian adenocarcinoma), conc 50 uM) was 62.5%. The viability at 72 h, 0.78125 uM ([2]; SKOV-3 ovarian adenocarcinoma cells, conc 0.78125 uM) was 71.6%, the viability at 72 h, 1.5625 uM ([2]; SKOV-3 ovarian adenocarcinoma cells, conc 1.5625 uM) was 72.2% and the viability at 72 h, 3.125 uM ([2]; SKOV-3 ovarian adenocarcinoma cells, conc 3.125 uM) was 67.3%. For the same molecule, the viability at 72 h, 6.25 uM ([2]; SKOV-3 ovarian adenocarcinoma cells, conc 6.25 uM) was 66.2%, the viability at 72 h, 9.53674e-05 uM ([3]; conc 9.53674e-5 uM) was 98.1% and the viability at 72 h, 0.000190735 uM ([3]; conc 0.000190735 uM) was 101%. For the same molecule, the viability at 72 h, 0.00038147 uM ([3]; conc 0.00038147 uM) was 107%, the viability at 72 h, 0.000762939 uM ([3]; conc 0.000762939 uM) was 100% and the viability at 72 h, 0.00152588 uM ([3]; conc 0.00152588 uM) was 106%. The viability at 72 h, 0.00305176 uM ([3]; conc 0.00305176 uM) was 95.3%, the viability at 72 h, 0.00610352 uM ([3]; conc 0.00610352 uM) was 96.3% and the viability at 72 h, 0.012207 uM ([3]; conc 0.012207 uM) was 74.7%. The viability at 72 h, 0.0244141 uM ([3]; conc 0.0244141 uM) was 79%, the viability at 72 h, 0.0488281 uM ([3]; conc 0.0488281 uM) was 40% and the viability at 72 h, 0.0976562 uM ([3]; conc 0.0976562 uM) was 39.6%. It also gave a viability at 72 h, 0.195312 uM ([3]; conc 0.195312 uM) of 36.3%, a viability at 72 h, 0.390625 uM ([3]; conc 0.390625 uM) of 32.4% and a viability at 72 h, 0.78125 uM ([3]; conc 0.78125 uM) of 32.4%. The viability at 72 h, 1.5625 uM ([3]; conc 1.5625 uM) was 29.2%, the viability at 72 h, 3.125 uM ([3]; conc 3.125 uM) was 28.8% and the viability at 72 h, 6.25 uM ([3]; conc 6.25 uM) was 28.5%. It also gave a viability at 72 h, 12.5 uM ([3]; conc 12.5 uM) of 30.5%, a viability at 72 h, 25 uM ([3]; conc 25 uM) of 28.8% and a viability at 72 h, 50 uM ([3]; conc 50 uM) of 21.6%.
